From ChEMBL document CHEMBL4665918, “Discovery of PEGylated 6-Benzhydryl-4-amino-quinazolines as Peripherally Restricted CBR Inverse Agonists” (ACS Med Chem Lett, 2020)
Activity calls are given as the source filed them. No cut-off for these calls is given here.

Columns and labels:
[1] = target: Cannabinoid receptor 1 (Homo sapiens, UniProt P21554); assay: Inverse agonist activity at human CB1 receptor expressed in HEK293 cells assessed as forskolin-stimulated cAMP accumulation after 30 mins by HTRF assay; assay type: functional, cell-based
Sequence of Cannabinoid receptor 1 (P21554 whole entry): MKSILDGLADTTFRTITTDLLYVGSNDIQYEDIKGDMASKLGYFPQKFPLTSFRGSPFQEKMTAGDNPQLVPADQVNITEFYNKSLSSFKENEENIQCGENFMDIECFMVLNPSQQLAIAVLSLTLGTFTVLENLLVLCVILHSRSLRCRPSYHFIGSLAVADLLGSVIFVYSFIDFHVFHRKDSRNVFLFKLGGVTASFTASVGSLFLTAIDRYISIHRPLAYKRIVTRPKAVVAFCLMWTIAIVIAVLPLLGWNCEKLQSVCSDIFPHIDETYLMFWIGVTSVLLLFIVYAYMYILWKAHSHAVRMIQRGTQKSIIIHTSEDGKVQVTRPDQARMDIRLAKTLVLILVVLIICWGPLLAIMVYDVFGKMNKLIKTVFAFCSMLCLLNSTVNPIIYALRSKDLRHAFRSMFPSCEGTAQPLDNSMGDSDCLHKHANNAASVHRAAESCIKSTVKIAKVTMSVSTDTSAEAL

[2] = Ratio of drug level in brain to plasma in C57BL/6J mouse at 20 mg/kg, po measured after 4 hr; assay type: ADME, organism-based; details: brain and plasma
[3] = organism: Homo sapiens; assay: Selectivity index, ratio of EC50 for human CB2 receptor expressed in HEK293 cells to EC50 for human CB1 receptor expressed in HEK293 cells; assay type: cell-based
[4] = Ratio of drug level in brain to plasma in C57BL/6J mouse at 20 mg/kg, po measured after 1 hr; assay type: ADME, organism-based; details: brain and plasma
[5] = test system: Mus musculus; assay: In vivo inverse agonist activity at CB1 receptor in C57 mouse assessed as reduction in CP55940-induced inhibition of upper gastrointestinal motility at 10 mg/kg, po after 2 hrs; assay type: functional, organism-based

Row | EC50 [1] [nM] | Kp at 1 h [2] | Kp at 1 h [4] | Compound | Ratio EC50 [3] | Activity [5]
1 | 7.8 |  |  | O=C(NC(CO)(CO)CO)c1ccc(S(=O)(=O)N2CCC(Nc3ncnc4ccc(C(c5ccc(Cl)cc5)c5ccc(Cl)cc5)cc34)CC2)cc1 |  | 
2 | 4.6 | 0.08 | 0.02 | O=S(=O)(N1CCC(Nc2ncnc3ccc(C(c4ccc(Cl)cc4)c4ccc(Cl)cc4)cc23)CC1)C(F)(F)F | 170 | 
3 |  |  |  | Cc1c(C(=O)NN2CCCCC2)nn(-c2ccc(Cl)cc2Cl)c1-c1ccc(Cl)cc1 |  | Active
